Laboratory results reported in patent publication US7825256B2, “Inducible nitric oxide synthase dimerization inhibitors” (Kalypsys, Inc., priority 2004, dated 2010).

How the values were obtained:
Assay type in all cases: cell-based
hiNOS = molecular target: T1, hiNOS (Homo sapiens, UniProt P35228); assay: DAN assay, hiNOS expressed in transiently transfected HEK293 cells; conditions: HEK293 cells transiently transfected with hiNOS
T1 construct: expressed in transfected cells; host or cells: HEK293
Procedure, shortened: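 Human iNOS, nNOS or eNOS transiently expressed in HEK293 cells, with nNOS and eNOS needing added cofactors for activity. NO production is read as nitrite by fluorometry: 2,3-diaminonaphthalene forms fluorescent […], detecting 10 nM to 10 μM nitrite.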

heNOS = molecular target: T2, heNOS (Homo sapiens, UniProt P29474); assay: DAN assay, heNOS expressed in transiently transfected HEK293 cells; conditions: HEK293 cells transiently transfected with heNOS
T2 construct: expressed in transfected cells; host or cells: HEK293
T2 sequence (P29474 2-1203 limits assumed): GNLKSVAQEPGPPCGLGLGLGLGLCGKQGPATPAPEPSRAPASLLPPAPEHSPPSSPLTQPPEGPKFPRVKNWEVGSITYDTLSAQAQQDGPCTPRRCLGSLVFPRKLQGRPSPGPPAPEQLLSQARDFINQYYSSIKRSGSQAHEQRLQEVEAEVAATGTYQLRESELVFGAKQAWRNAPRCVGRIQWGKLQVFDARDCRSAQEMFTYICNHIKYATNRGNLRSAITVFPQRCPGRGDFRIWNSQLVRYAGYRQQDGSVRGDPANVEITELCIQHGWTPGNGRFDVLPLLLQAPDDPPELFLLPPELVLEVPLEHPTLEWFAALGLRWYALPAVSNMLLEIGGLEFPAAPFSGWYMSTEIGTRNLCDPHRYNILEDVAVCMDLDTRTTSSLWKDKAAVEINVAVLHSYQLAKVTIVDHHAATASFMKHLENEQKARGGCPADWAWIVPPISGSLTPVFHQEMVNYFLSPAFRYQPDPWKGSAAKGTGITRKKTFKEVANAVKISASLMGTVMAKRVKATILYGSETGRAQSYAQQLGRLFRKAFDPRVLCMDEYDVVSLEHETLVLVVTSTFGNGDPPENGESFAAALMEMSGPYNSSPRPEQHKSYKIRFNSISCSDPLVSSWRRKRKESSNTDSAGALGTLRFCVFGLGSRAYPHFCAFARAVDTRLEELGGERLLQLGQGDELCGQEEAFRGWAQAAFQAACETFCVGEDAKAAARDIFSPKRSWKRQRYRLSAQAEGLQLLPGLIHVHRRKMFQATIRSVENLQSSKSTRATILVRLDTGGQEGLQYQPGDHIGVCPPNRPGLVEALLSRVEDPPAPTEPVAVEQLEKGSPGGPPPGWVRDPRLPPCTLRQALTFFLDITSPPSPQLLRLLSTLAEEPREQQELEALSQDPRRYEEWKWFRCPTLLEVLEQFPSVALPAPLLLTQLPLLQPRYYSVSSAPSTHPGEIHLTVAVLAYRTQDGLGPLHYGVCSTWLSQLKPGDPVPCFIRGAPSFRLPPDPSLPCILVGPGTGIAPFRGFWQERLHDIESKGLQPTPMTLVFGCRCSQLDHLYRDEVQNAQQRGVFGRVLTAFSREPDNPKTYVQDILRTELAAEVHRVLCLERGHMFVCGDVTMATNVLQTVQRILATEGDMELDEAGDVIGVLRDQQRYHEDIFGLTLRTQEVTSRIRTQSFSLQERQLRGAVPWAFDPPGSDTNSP
From the text: (§1) The source of nitric oxide synthase (NOS) enzyme can be generated in several ways including induction of endogenous iNOS using cytokines and/or lipopolysaccharide (LPS) in various cell types known in the art. Alternatively, the gene encoding the enzyme can be cloned and the enzyme can be generated in cells via heterologous expression from a transient or stable expression plasmid with suitable features for protein expression as are known in the art. Enzymatic activity (nitric oxide production) is calcium independent for iNOS, while the constitutive NOS isoforms, nNOS and eNOS, become active with the addition of various cofactors added to cellular media or extract as are well known in the art. Enzymes specified in Table 1 were expressed in HEK293 cells transiently transfected with the indicated NOS isoform.
(§2) A major metabolic pathway for nitric oxide is to nitrate and nitrite, which are stable metabolites within tissue culture, tissue, plasma, and urine (S Moncada, A Higgs, N Eng J Med 329, 2002 (1993)).
(§3) The level of nitrate or nitrite in the specimen can be quantified by any method known in the art which provides adequate sensitivity and reproducibility. A variety of protocols have also been described for detecting and quantifying nitrite and nitrate levels in biological fluids by ion chromatography (e.g., S A Everett et al., J. Chromatogr. 706, 437 (1995); J M Monaghan et al., J. Chromatogr. 770, 143 (1997)), high-performance liquid chromatography (e.g., M Kelm et al., Cardiovasc. Res. 41, 765 (1999)), and capillary electrophoresis (M A Friedberg et al., J. Chromatogr. 781, 491 (1997)). […] Using 2,3-diaminonaphthalene (“DAN”), researchers have developed a rapid, quantitative fluorometric assay that can detect from 10 nM to 10 μM nitrite and is compatible with a multi-well microplate format. […]
(§4) A specimen can be processed prior to determination of nitrate or nitrite as required by the quantification method, or in order to improve the results, or for the convenience of the investigator. […]

hnNOS = molecular target: T3, hnNOS (Homo sapiens, UniProt P29475); assay: DAN assay, hnNOS expressed in transiently transfected HEK293 cells; conditions: HEK293 cells transiently transfected with hnNOS
T3 construct: expressed in transfected cells; host or cells: HEK293
From the text: as §1, §2, §3, §4

T3 sequence (P29475 whole entry): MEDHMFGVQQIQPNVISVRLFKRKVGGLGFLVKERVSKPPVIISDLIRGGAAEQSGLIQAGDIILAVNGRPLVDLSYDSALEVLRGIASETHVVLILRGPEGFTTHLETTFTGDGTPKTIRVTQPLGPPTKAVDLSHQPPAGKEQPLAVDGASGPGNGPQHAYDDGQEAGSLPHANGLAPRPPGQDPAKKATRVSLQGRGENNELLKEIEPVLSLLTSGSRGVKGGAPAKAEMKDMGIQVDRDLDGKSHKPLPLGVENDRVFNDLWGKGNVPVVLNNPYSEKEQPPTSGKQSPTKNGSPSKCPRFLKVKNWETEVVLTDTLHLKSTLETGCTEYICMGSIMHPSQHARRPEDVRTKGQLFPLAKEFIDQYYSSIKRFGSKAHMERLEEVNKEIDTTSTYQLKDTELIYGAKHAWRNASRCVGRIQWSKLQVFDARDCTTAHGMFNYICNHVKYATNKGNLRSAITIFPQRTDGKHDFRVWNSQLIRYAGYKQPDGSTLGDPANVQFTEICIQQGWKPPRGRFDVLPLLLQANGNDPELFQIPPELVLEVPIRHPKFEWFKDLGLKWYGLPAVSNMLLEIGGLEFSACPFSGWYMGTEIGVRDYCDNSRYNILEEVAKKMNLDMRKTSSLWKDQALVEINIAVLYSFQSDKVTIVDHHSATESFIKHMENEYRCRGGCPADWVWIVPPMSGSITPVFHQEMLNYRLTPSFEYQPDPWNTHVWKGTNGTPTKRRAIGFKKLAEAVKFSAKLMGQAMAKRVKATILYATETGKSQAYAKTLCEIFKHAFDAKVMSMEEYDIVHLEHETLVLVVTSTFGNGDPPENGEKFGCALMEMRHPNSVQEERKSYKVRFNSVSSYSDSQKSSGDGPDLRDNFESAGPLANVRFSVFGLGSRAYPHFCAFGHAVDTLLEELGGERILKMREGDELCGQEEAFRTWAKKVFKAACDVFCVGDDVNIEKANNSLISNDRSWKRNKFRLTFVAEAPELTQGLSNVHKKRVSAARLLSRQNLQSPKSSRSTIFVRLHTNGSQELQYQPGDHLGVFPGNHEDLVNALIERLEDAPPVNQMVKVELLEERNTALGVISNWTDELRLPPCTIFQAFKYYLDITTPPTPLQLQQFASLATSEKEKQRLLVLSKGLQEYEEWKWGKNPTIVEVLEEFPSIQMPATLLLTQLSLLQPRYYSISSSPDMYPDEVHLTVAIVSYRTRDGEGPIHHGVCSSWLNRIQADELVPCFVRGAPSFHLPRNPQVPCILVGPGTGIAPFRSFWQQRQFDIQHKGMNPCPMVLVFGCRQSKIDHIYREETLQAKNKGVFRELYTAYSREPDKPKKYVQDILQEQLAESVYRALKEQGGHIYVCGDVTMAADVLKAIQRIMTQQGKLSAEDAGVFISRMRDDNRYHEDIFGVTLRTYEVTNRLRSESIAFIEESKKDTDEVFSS

Row | Structure (SMILES) | EC50 (hiNOS) [nM] | EC50 (heNOS) [nM] | EC50 (hnNOS) [nM]
1 | CN(CCCNCc1ccc2c(c1)OCO2)c1nc(-n2ccnc2)ns1 [Example 2, N′-Benzo[1,3]dioxol-5-ylmethyl-N-(3-imidazol-1-yl-[1,2,4]thiadiazol-5-yl)-N-methyl-propane-1,3-diamine] | < 1000 | > 10000 | > 1000
2 | Cc1cc(C2CCCN2C(=O)NCCc2ccc3c(c2)OCO3)nc(-n2ccnc2)n1 (stereo not drawn) [Example 4, 2-(2-Imidazol-1-yl-6-methyl-pyrimidin-4-yl)-pyrrolidine-1-carboxylic acid (2-benzo[1,3]dioxol-5-yl-ethyl)-amide] | < 1000 | > 10000 | 700
3 | Cc1cc(C2CCCN2C(=O)CNCc2ccc3c(c2)OCO3)nc(-n2ccnc2)n1 (stereo not drawn) [Example 5] | < 1000 | > 10000 | > 1000
